# Measured values as given in patent USRE36477E, “Benzoic acid derivatives and process for preparing the same” (Taiho Pharmaceutical Co., Ltd., priority 1988, dated 1999).
# System: human acute promyelocytic leukemia cells (HL-60)
# Assay: Differentiation of human acute promyelocytic leukemia cells (HL-60), morphological changes of nuclei and NBT reduction
# Type: cell-based
# Conditions: HL-60 cells, 4 days culture, Wright-Giemsa stain
# Method: The test of the activities of the compounds of this invention has been conducted by measuring the concentration required for inducing the differentiation of human acute promyelocytic leukemia cells (HL 60), according to the methods described in detail hereinafter.
# The HL-60 cells are cultured in plastic flasks in RPMI 1640 medium supplemented with 5% heat-inactivated fetal calf serum and antibiotics (penicillin G and streptomycin). The cells (3×10^4 /ml) are cultured with a compound of the present invention for 4 days. The cells are fixed and stained with Wright-Giemsa to examine the morphological changes of the nuclei. […] The biochemical activity of cells treated with the compound is measured as follows:
# The cells after 5 days incubation are centrifuged and diluted with RPMI 1640 medium, supplemented with 5% fetal calf serum, to provide a definite number of the cells. To the diluted cell suspension are then added 200 ng/ml of 12-o-tetradodecanoylphorbol-13-acetate (TPA) and the resulting culture medium is then incubated for 20 minutes at 37° C. in the presence of 0.1% of NBT. Thus, the mature differentiated cells containing blue-black formazan are counted by microscope, so that the ratio of the cells having the ability to reduce NBT, to total cells, can be calculated.
# As a positive control for comparison, the known compounds represented by the formula (II) and trans retinoic acid were used.
row,SMILES,morphological changes of the nuclei (differentiation)
1,CC1=C(/C=C/C(C)=C/C=C/C(C)=C/C(=O)O)C(C)(C)CCC1 [retinoic acid],"differentiated to mature granulocytes (myelocytes, metamyelocytes and neutrophiles)"

# Same assay, conditions: Homo sapiens, 96 h; HL-60 cells; Table 1; read-out: ED50 (effective doses which cause differentiation of 50% of the cultured cells)
row,SMILES,EC50
1,C[Si](C)(C)c1cc(NC(=O)c2ccc(C(=O)O)cc2)cc([Si](C)(C)C)c1,20 nM
2,CC(C)(C)c1cccc(C(=O)/C=C/c2ccc(C(=O)O)cc2)c1,100 nM
3,CC(C)(C)c1cccc(NC(=O)c2ccc(C(=O)O)cc2)c1,1000 nM
4,CC(C)(C)c1cc(C(=O)/C=C/c2ccc(C(=O)O)cc2)cc(C(C)(C)C)c1,0.4 nM

# Same assay, conditions: Homo sapiens, HL-60, 96 h, read-out: ED50 (effective doses which cause differentiation of 50% of the cultured cells)
row,SMILES,EC50
1,C[Si](C)(C)c1cccc(NC(=O)c2ccc(C(=O)O)cc2)c1,80 nM
2,C[Si](C)(C)c1cc(C(=O)/C=C/c2ccc(C(=O)O)cc2)cc([Si](C)(C)C)c1,0.2 nM
3,C[Si](C)(C)c1cccc(/C=C/c2ccc(C(=O)O)cc2)c1,60 nM
4,CC1=C(/C=C/C(C)=C/C=C/C(C)=C/C(=O)O)C(C)(C)CCC1 [retinoic acid],2 nM
